#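 Where inhibition never reached the appropriate level, the endpoint shown equals the highest concentration tested. Otherwise, values were interpolated linearly from a five-concentration, 48-hour dose response in 96-well plates. TGI marks complete inhibition of growth.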 Where a SMILES comes first, the peptide text is derived from it. The star is where a group is joined. Cbz = O=C(OCc1ccccc1)*
# Experiments:
# Test in all cases: NCI-60 cell line screen, 48 h
# [1] = tested on: A549 NSCLC
# [2] = tested on: LXFL 529 NSCLC
# [3] = tested on: OVCAR-5 ovarian
# [4] = tested on: SNB-75 CNS
# [5] = tested on: HL-60(TB) leukemia
# [6] = tested on: CCRF-CEM leukemia
# [7] = tested on: COLO 205 colon
# [8] = tested on: SK-OV-3 ovarian
# [9] = tested on: OVCAR-8 ovarian
# [10] = tested on: NCI/ADR-RES ovarian
# [11] = tested on: MDA-MB-231 breast
Structure (SMILES),TGI [1] [µM],TGI [2] [µM],TGI [3] [µM],TGI [4] [µM],TGI [5] [µM],TGI [6] [µM],TGI [7] [µM],TGI [8] [µM],TGI [9] [µM],TGI [10] [µM],TGI [11] [µM]
c1ccc2c(c1)OCCOCCOc1ccccc1OCCO2,> 100,> 100,> 100,> 100,69.1,> 100,> 100,> 100,> 100,–,–
COc1ccc2nc3cc(Cl)ccc3c(Sc3ccc(NC(C)=O)cc3)c2c1,> 100,> 23.5,> 45.7,> 54.9,52,> 100,> 34.2,> 61.9,> 21.1,–,–
CC(=O)OCCOCNC(=S)N/N=C/c1ccc([N+](=O)[O-])s1,> 100,> 100,> 100,> 100,11.5,> 100,4.61,> 100,> 100,–,–
CCOC(=O)CCC(NC(=O)c1ccc(NCc2ccc3nc(-c4ccccc4)c(Cl)nc3c2)cc1)C(=O)OCC (configuration not stated),> 100,> 100,> 100,> 100,> 100,> 100,41.7,> 100,–,–,–
Nc1c(S(=O)(=O)c2ccccc2)c2nc3ccccc3nc2n2c1nc1ccccc12,> 100,> 100,> 100,> 51.1,> 100,> 100,> 100,> 100,> 63.4,–,–
C[n+]1c2ccccc2c(NC(CCCN=C(N)N)C(=O)O)c2ccccc21 (configuration not stated),> 100,> 100,> 100,> 100,> 100,–,> 100,> 100,> 100,–,–
O=[N+]([O-])c1c(F)c(F)c2c(c1F)N(CCCCCl)c1ccccc1S2,31.8,–,33.6,17.2,5.7,6.35,27.5,34,11.3,37.5,21.9
Cc1[nH]n(-c2nc(O)c(-c3ccccc3)c(=O)[nH]2)c(=O)c1CCO,> 100,–,> 100,> 100,> 100,> 100,> 100,> 100,> 100,> 100,> 100
CCOC(=O)C(Cc1ccc(O)cc1)Nc1nc(=O)c2c(=O)oc(Cl)cc2o1 (configuration not stated),34.7,–,34.7,18.6,13.5,23.4,37.9,27.7,14,> 69.7,23.1
CN1CCc2c(sc3[nH]c(=S)[nH]c(=S)c23)C1,> 100,–,> 100,> 100,> 100,> 100,> 100,> 100,> 100,> 100,> 100
Cc1ccc(CSC(N)=Nc2ccccc2)cc1C,> 100,–,56.4,63.9,62.9,> 100,41.5,54.7,45.9,52.8,33.6
COc1ccc(CNc2nc(NC3CCCCC3)nc(NC3CCCCC3)n2)cc1,> 100,–,> 100,> 100,> 100,> 100,20.9,> 100,> 100,> 100,20.1
CN1CC=C(c2c(N)nc(N)[nH]c2=O)CC1,> 100,–,> 100,> 100,> 100,> 100,> 100,> 100,> 100,> 100,> 100
S=C1NCCN1C(=S)Nc1ccccc1,> 100,–,> 100,> 100,> 100,> 100,> 100,> 100,> 100,> 100,> 100
C=CC1(CC[C@]2(c3ccc(OC)c(OC)c3)C=[N+]([O-])O[C@H](O[C@@H]3CCCC[C@H]3C(C)(C)c3ccccc3)C2)OCC(C)(C)CO1,> 54.8,–,39,> 52.2,4.81,23.8,> 53.3,> 65.3,40.6,31,33.9
CCOC(=O)CCC(NC(=O)C(Cc1ccccc1)NC(=O)OCc1ccccc1)C(=O)OCC (stereo not drawn) (Cbz-Phe-Glu(OEt)-OEt; configuration not given here),36.9,–,32.6,35.1,41.2,> 64.7,35.3,30.5,36.2,42,29.5

# From PubChem BioAssay (NCI)
